Measured values as given in ChEMBL document CHEMBL4184101, “Hybrid peptide-small molecule oxytocin analogs are potent and selective agonists of the oxytocin receptor” (Bioorg Med Chem Lett, 2018).
*1 amine or outer side, *2 acyl side, *3 side chain or, on linkers, in order; H or OH if unused. Where a SMILES comes first, the peptide text is derived from it. Bridges are numbered along the chain shown (N, C = ends). [ ]: non-standard residue; d: D form. The star is where a group is joined. X3 = c1ccc(OC[C@@H]2CCCN2*)cc1; X5 = c1ccc(NC[C@@H]2CCCN2*)cc1; X8 = c1ccc(CC[C@@H]2CCCN2*)cc1; Cysteamide = C(CS[*:3])N[*:1]; X1 = c1ccc([C@@H]2CCCN2*)nc1; X6 = Cc1nnc([C@@H]2CCCN2*)o1; X9 = C1CCN(C2CCN(*)CC2)C1; Pyrrolidide = C1CCN(*)C1; X4 = COC[C@@H]1CCCN1*; X10 = CN1CCCN(*)CC1; X2 = C[C@H]1CCCN1*; X7 = CC(C)CCN(C)*; Mpa = O=C(O)CCS

How the values were obtained:
[1] = target: Vasopressin V1a receptor (Homo sapiens, UniProt P37288); experiment: Agonist activity at vasopressin 1a receptor (unknown origin); assay type: functional
[2] = target: T1, Oxytocin receptor (Homo sapiens, UniProt P30559); experiment: Agonist activity at human OTR expressed in CHO cells assessed as increase in calcium flux after 60 to 120 mins by fluo-4 dye based FLIPR assay; assay type: functional, cell-based
T1 sequence (P30559 whole entry): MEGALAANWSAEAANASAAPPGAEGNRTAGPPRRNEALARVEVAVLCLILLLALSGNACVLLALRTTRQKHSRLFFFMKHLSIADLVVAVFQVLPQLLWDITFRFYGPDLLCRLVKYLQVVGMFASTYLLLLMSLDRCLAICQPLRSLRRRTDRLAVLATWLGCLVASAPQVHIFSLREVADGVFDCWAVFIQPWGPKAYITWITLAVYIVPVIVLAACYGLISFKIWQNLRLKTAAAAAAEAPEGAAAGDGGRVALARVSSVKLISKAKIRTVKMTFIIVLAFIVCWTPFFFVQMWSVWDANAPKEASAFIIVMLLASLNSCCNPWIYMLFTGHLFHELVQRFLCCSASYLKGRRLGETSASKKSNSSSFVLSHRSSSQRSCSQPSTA

[3] = target: T2, Oxytocin receptor (Homo sapiens) (UniProt P30559); experiment: Agonist activity at human OTR expressed in CHO cells assessed as increase in calcium flux after 60 to 120 mins by fluo-4 dye based FLIPR assay relative to control; assay type: functional, cell-based
T2 sequence (whole entry): T1 sequence (P30559 whole entry)

[4] = Stability in human liver microsomes by LC/MS/MS analysis; assay type: ADME, microsome; details: read-out: Stability

Vasopressin V1a receptor, sequence (P37288 whole entry): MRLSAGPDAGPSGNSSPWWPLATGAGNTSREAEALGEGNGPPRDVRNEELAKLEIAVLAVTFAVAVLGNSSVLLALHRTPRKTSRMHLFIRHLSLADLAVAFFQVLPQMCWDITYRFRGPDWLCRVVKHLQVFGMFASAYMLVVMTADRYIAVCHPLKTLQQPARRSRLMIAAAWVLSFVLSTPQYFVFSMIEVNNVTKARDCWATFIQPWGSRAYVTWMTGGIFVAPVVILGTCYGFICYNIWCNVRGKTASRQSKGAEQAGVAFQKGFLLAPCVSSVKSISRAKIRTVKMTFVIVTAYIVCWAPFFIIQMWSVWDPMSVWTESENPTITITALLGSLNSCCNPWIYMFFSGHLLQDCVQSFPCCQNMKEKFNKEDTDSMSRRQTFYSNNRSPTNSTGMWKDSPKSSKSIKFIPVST

SMILES | EC50 [1] [nM] | EC50 [2] [nM] | Efficacy [3] [%] | CLint scaled [4] [mL/min/kg]
CC[C@H](C)[C@@H]1NC(=O)[C@H](Cc2ccc(O)cc2)NC(=O)CCSSC[C@@H](C(=O)N2CCC[C@H]2C(N)=O)NC(=O)[C@H](CC(N)=O)NC(=O)[C@H](CCC(N)=O)NC1=O | > 1000 | 1.3 | 89 | < 8
CC[C@H](C)[C@@H]1NC(=O)[C@H](Cc2ccc(O)cc2)NC(=O)CCSSC[C@@H](C(N)=O)NC(=O)[C@H](CC(N)=O)NC(=O)[C@H](CCC(N)=O)NC1=O | > 1000 | 5.4 | 90 | < 8
CC[C@H](C)[C@@H]1NC(=O)[C@H](Cc2ccc(O)cc2)NC(=O)CCSSC[C@@H](C(=O)N2CCC[C@H]2C(=O)N[C@@H](CC(C)C)C(=O)NCC(N)=O)NC(=O)[C@H](CC(N)=O)NC(=O)[C@H](CCC(N)=O)NC1=O |  |  | 106 | < 8
CC[C@H](C)[C@@H]1NC(=O)[C@H](Cc2ccc(O)cc2)NC(=O)CCSSCCNC(=O)[C@H](CC(N)=O)NC(=O)[C@H](CCC(N)=O)NC1=O ([Mpa]YIQN-Cysteamide; disulfide 1-C) | > 1000 | 28 | 67 | < 8
CC[C@H](C)[C@@H]1NC(=O)[C@H](Cc2ccc(O)cc2)NC(=O)CCSSC[C@@H](C(=O)N2CCCC2)NC(=O)[C@H](CC(N)=O)NC(=O)[C@H](CCC(N)=O)NC1=O ([Mpa]YIQNC-Pyrrolidide; disulfide 1-6) | > 1000 | 0.51 | 97 | < 8
CC[C@H](C)[C@@H]1NC(=O)[C@H](Cc2ccc(O)cc2)NC(=O)CCSSC[C@@H](C(=O)N2CCC[C@@H]2C)NC(=O)[C@H](CC(N)=O)NC(=O)[C@H](CCC(N)=O)NC1=O ([Mpa]YIQNC-X2; disulfide 1-6) | > 1000 | 0.6 | 84 | < 8
CC[C@H](C)[C@@H]1NC(=O)[C@H](Cc2ccc(O)cc2)NC(=O)CCSSC[C@@H](C(=O)N2CCC[C@H]2COc2ccccc2)NC(=O)[C@H](CC(N)=O)NC(=O)[C@H](CCC(N)=O)NC1=O ([Mpa]YIQNC-X3; disulfide 1-6) | > 1000 | 194 | 52 | 123
CC[C@H](C)[C@@H]1NC(=O)[C@H](Cc2ccc(O)cc2)NC(=O)CCSSC[C@@H](C(=O)N2CCC[C@H]2COC)NC(=O)[C@H](CC(N)=O)NC(=O)[C@H](CCC(N)=O)NC1=O ([Mpa]YIQNC-X4; disulfide 1-6) | > 1000 | 0.44 | 91 | < 8
CC[C@H](C)[C@@H]1NC(=O)[C@H](Cc2ccc(O)cc2)NC(=O)CCSSC[C@@H](C(=O)N2CCC[C@H]2CNc2ccccc2)NC(=O)[C@H](CC(N)=O)NC(=O)[C@H](CCC(N)=O)NC1=O ([Mpa]YIQNC-X5; disulfide 1-6) | > 1000 | 0.77 | 76 | 40
CC[C@H](C)[C@@H]1NC(=O)[C@H](Cc2ccc(O)cc2)NC(=O)CCSSC[C@@H](C(=O)N2CCC[C@H]2CCc2ccccc2)NC(=O)[C@H](CC(N)=O)NC(=O)[C@H](CCC(N)=O)NC1=O ([Mpa]YIQNC-X8; disulfide 1-6) | > 1000 | 5.2 | 59 | 153
CC[C@H](C)[C@@H]1NC(=O)[C@H](Cc2ccc(O)cc2)NC(=O)CCSSC[C@@H](C(=O)N2CCC[C@H]2C(=O)N2CCC(N3CCCC3)CC2)NC(=O)[C@H](CC(N)=O)NC(=O)[C@H](CCC(N)=O)NC1=O ([Mpa]YIQNCP-X9; disulfide 1-6) | > 1000 | 6.8 | 98 | 
CC[C@H](C)[C@@H]1NC(=O)[C@H](Cc2ccc(O)cc2)NC(=O)CCSSC[C@@H](C(=O)N2CCC[C@H]2C(=O)N2CCCN(C)CC2)NC(=O)[C@H](CC(N)=O)NC(=O)[C@H](CCC(N)=O)NC1=O ([Mpa]YIQNCP-X10; disulfide 1-6) | > 1000 | 3.6 | 98 | 

The next lines start with the values.

EC50 [1] [nM] | EC50 [2] [nM] | Efficacy [3] [%] | CLint scaled [4] [mL/min/kg] | SMILES
> 1000 | 1.8 | 82 | < 8 | CC[C@H](C)[C@@H]1NC(=O)[C@H](Cc2ccc(O)cc2)NC(=O)CCSSC[C@@H](C(=O)N2CCC[C@H]2C(=O)N[C@@H](CC(C)C)C(N)=O)NC(=O)[C@H](CC(N)=O)NC(=O)[C@H](CCC(N)=O)NC1=O
> 1000 | 0.83 | 80 | < 8 | CC[C@H](C)[C@@H]1NC(=O)[C@H](Cc2ccc(O)cc2)NC(=O)CCSSC[C@@H](C(=O)N2CCC[C@H]2c2ccccn2)NC(=O)[C@H](CC(N)=O)NC(=O)[C@H](CCC(N)=O)NC1=O ([Mpa]YIQNC-X1; disulfide 1-6)
> 1000 | 0.6 | 77 | < 8 | CC[C@H](C)[C@@H]1NC(=O)[C@H](Cc2ccc(O)cc2)NC(=O)CCSSC[C@@H](C(=O)N2CCC[C@H]2c2nnc(C)o2)NC(=O)[C@H](CC(N)=O)NC(=O)[C@H](CCC(N)=O)NC1=O ([Mpa]YIQNC-X6; disulfide 1-6)
> 1000 | 1.8 | 94 | 25.5 | CC[C@H](C)[C@@H]1NC(=O)[C@H](Cc2ccc(O)cc2)NC(=O)CCSSC[C@@H](C(=O)N2CCC[C@H]2C(=O)N(C)CCC(C)C)NC(=O)[C@H](CC(N)=O)NC(=O)[C@H](CCC(N)=O)NC1=O ([Mpa]YIQNCP-X7; disulfide 1-6)
 |  | 102 | 30 | CC[C@H](C)[C@@H]1NC(=O)[C@H](Cc2ccc(O)cc2)NC(=O)[C@@H](N)CSSC[C@@H](C(=O)N2CCC[C@H]2C(=O)N[C@@H](CC(C)C)C(=O)NCC(N)=O)NC(=O)[C@H](CC(N)=O)NC(=O)[C@H](CCC(N)=O)NC1=O [OXYTOCIN]
